Source: US5217997A, “Use of L-arginine in the treatment of hypertension and other vascular disorders” (priority 1992, dated 1993)
“Also recorded” adds a separate entry of the source. Like-named read-outs stand apart in the source and are kept apart here.

Key:
[1] = system: Wistar Kyoto rats; assay: Tail blood pressure of age-matched Wistar Kyoto rats after L- or D-arginine hydrochloride (Example 1); type: in vivo, rat; conditions: for effect on blood pressure: age-matched normotensive Wistar Kyoto rats
Experimental: (§1) Male spontaneous hypertensive rats and Wistar Kyoto rats were purchased from Charles River (Wilmington, Mass.) and were fed and housed under identical conditions for at least five days before use. The rats were caged in groups of three with food and water ad libitum under an artificial light-dark cycle of twelve hours.
(§2) L- and D-arginine hydrochloride were obtained from Aldrich (Milwaukee, Wis.). Forty-five-day-old spontaneous hypertensive rats were injected with L-arginine hydrochloride, 5, 16, 50, 80, 100 and 500 mg/kg body weight, or D-arginine-hydrochloride, 80 and 100 mg/kg body weight, intraperitoneally,in a final volume of 1.0 ml buffered saline for four consecutive days. The control spontaneous hypertensive rats and Wistar Kyoto rats were injected with saline. Forty-five day old Wistar Kyoto strain rats were injected with 50 mg/kg body weight of L-arginine hydrochloride for four days. Each group consisted of four or five experimental animals. Blood pressure from the tail was measured before the first injection and twenty-four hours after the last arginine administration. Blood pressure was measured with anesthesia, using a pletysmograph.
(§3) Results are expressed as the means ±SEM. A two-way analysis of variance was performed to compare blood values between control, L-arginine and D-arginine treated spontaneous hypertensive rats. Specific differences between groups were tested by the Newman-Keuls test. The null hypothesis was rejected when the p value was less than 0.05.
(§4) The blood pressure of 7-week-old spontaneous hypertensive rats and Wistar Kyoto rats was monitored before and after administration of L- and D-arginine. […] At a dose as low as 16 mg/kg body weight, L-arginine lowered blood pressure by 10 mm Hg […].
For example, blood pressure of 7-week-old Wistar Kyoto rats remained unchanged following four days of treatment with L-arginine (50 mg/kg body weight), 122.3±1.3 mm Hg vs. 124.5±1.7 mm Hg for control and treated, respectively, n=3.

[2] = system: spontaneous hypertensive rats; assay: Systolic blood pressure in 7-week-old SHR, heme vs. arginine component and heme oxygenase inhibitor (Table 3); type: in vivo, rat; conditions: for reduction of blood pressure: "same dose (15 mg/kg body weight)", control increased by 7.7 mmHg; for Systolic blood pressure, after treatment: n=5, 4 days, heme-L-arginate = 15 mg hemin + 16 mg L-arginine per kg, hemin 15, L-arginine 16, ZnDPBG 7 mg/kg, 23 hours after last injection, *p<0.005 vs control 166.0±2.7; for Systolic blood pressure, after treatment / Systolic blood pressure, before treatment: ±SD; for Systolic blood pressure, before treatment: n=5, baseline
Experimental: Applicants further examined whether the effect is due to heme or to the arginine component of heme arginate. In separate experiments, applicants treated 7-week-old spontaneous hypertensive rats with heme-L-arginate, hemin alone and L-arginine alone at the same dose (15 mg/kg body weight). […] At the same period, blood pressure in control spontaneous hypertensive rats increased by 7.7 mmHg.
Systolic blood pressure was measured by tail cuff pletysmograph before and 23 hours after the last injection. Results are the same ±SD, n=5 in each group; significance from control spontaneous hypertensive rats after 4 days of treatment with the vehicle (166.0±2.7), *p<0.005.

[3] = system: spontaneous hypertensive rats; assay: Tail blood pressure of 7-week-old spontaneous hypertensive rats after L- or D-arginine hydrochloride (Example 1); type: in vivo, rat
Experimental: as §1, §2, §3, §4

[4] = system: anesthetized rabbit; conditions: cited from earlier work
[5] = system: renal cytochrome P-450; conditions: in vivo; cited from earlier work
[6] = system: spontaneous hypertensive rats; conditions: young SHR; cited from earlier work

N=C(N)NCCC[C@H](N)C(=O)O [L-arginine, 2-amino-5-guanidinovaleric acid]
blood pressure, treated ([1]; 50 mg/kg body weight, four days, 7-week-old WKY, n=3, ±SEM, control 122.3±1.3): 124.5±1.7 mm Hg | effect on blood pressure [1]: Neither L-arginine nor D-arginine had any effect on blood pressure; also recorded: no effect was documented in normotensive rats | reduction of blood pressure [2]: 9.7 mmHg | Systolic blood pressure, after treatment [2]: 144.4 ± 3.0 mmHg | Systolic blood pressure, before treatment [2]: 154.1 ± 4.5 mmHg | decrease in blood pressure ([3]; 16 mg/kg body weight i.p., four consecutive days, 7-week-old SHR): 10 mm Hg | maximal effect, decrease in blood pressure ([3]; 100 mg/kg body weight (maximal dose) i.p., four days, 7-week-old SHR): 30 mm Hg | effect on blood pressure ([3]; 5-500 mg/kg i.p., four days, 7-week-old SHR): dose-dependent decrease in blood pressure | overall reduction of blood pressure ([3]; at the maximal dose, young SHR): 20% | effect on blood pressure of higher doses ([3]; doses higher than 100 mg/kg, 7-week-old SHR): did not lower blood pressure further | effect on the inhibition of N-monomethyl-L-arginine ([4]; L-arginine administration): abolished the inhibition of N-monomethyl-L-arginine within fifteen minutes

N=C(N)NCCC[C@@H](N)C(=O)O [D-arginine]
effect on blood pressure [1]: Neither L-arginine nor D-arginine had any effect on blood pressure | effect on blood pressure ([3]; 80 and 100 mg/kg body weight, four days, 7-week-old SHR): did not effect the blood pressure; also recorded: had no effect on blood pressure | effect on blood pressure ([3]; concentrations lower than 80 mg/kg body weight, SHR): did not alter blood pressure

Zn-2,4-deuteropophyrin IX bis glycol [ZnDPBG]
effect on blood pressure ([2]; inhibitor alone): did not have any effect on blood pressure | Systolic blood pressure, after treatment [2]: 169.1 ± 2.5 mmHg | Systolic blood pressure, before treatment [2]: 154.0 ± 4.0 mmHg

Hemin
reduction of blood pressure [2]: 14.3 mmHg | Systolic blood pressure, after treatment [2]: 142.2 ± 2.4 mmHg | Systolic blood pressure, before treatment [2]: 156.5 ± 3.3 mmHg

[Cl][Sn][Cl] [SnCl2]
effect on renal cytochrome P-450 [5]: depletion of renal cytochrome P-450 | effect on blood pressure [6]: marked decrease in blood pressure

CN=C(N)NCCC[C@H](N)C(=O)O [N-monomethyl-L-arginine]
effect on mean arterial blood pressure [4]: dose-dependent increase in mean arterial blood pressure
